The text below walks through data of patent publication US7419669B2, “Peptide epitopes common to antigens of the same multigene family” (Institut Gustave Roussy, priority 2002, dated 2008).

One assay has as its system tumor cells. To be noted: MICONNET et al., 2000; cited from earlier work.
Assay [1] addresses HLA-B*3701 allele of MHC-I (Homo sapiens, UniProt P01889, A329T/A93T/A95T/C349S/D138N/D201E/D98Y/E176V/E187T/E204Q/E69T/G107R/H137Y/K202T/L119I/N104T/N87E/Q94N/R106L/R155S/R180D/S101D/S121R/V306I/Y123S/Y140F/Y33H/Y91S). To be noted: TANZARELLA et al., 1999; cited from earlier work.
In assay [2] the test system is CD8+ cells from normal donors. Briefly: Induction of specific human CTLs in vitro from PBMCs of normal donors with p248V9, intracellular IFNγ production. Format: cell-based. As to the method:
The ability of p248V9 to induce CTLs in vitro using peripheral blood mononuclear cells (PBMCs) from normal donors was tested as follows.
The PBMCs are obtained, from blood samples taken by leukocytapheresis on normal donors, after centrifugation at 2000 rpm for 20 min on a Ficoll/Hypaque (Amersham) gradient. After 3 washes in 0.9% NaCl, they are resuspended in complete medium (RPMI 1640 supplemented with 10% of heat-inactivated human AB serum, 40 μg/ml of gentamicin (Panpharma) and […] of L-glutamine (Gibco)), and incubated at 37° C. for 2 hours. After incubation, the non-adherent cells are removed. The adherent cells are differentiated into dendritic cells by culturing in a Teflon bag in a proportion of 3×10^6 cells/ml in complete medium supplemented with 500 IU/ml of GM-CSF (R & D Systems) and 500 IU/ml of IL-4 (R & D Systems). On the seventh day, maturing agents (100 ng/ml of polyI:C and 2 μg/ml of anti-CD40 antibody) are added to the culture. After 24 hours, the mature dendritic cells are loaded with the peptide p248V9 by incubation for 2 hours with 10 μM of peptide in the presence of 5 μg/ml of β2-microglobulin, and then irradiated at 3500 rads; they are then washed in order to remove the free peptide. CD8+ cells are isolated from the non-adherent cells by means of microbeads coupled to an anti-CD8 antibody (Miltenyi Biotec).
2×10^5 CD8+ cells are stimulated with 2×10^4 dendritic cells loaded with the peptide, in complete medium supplemented with 1000 IU/ml of IL-6 and 5 IU/ml of IL-12 in a final volume of 100 μl/well in a 96-well plate. From the seventh day, the cultures are stimulated in vitro each week with the dendritic cells loaded with the peptide, in the presence of 20 IU/ml of IL-2 and 10 ng/ml of IL-7. After the third restimulation, the CD8+ cells are collected and stimulated with EBV-transformed HLA-A*0201 allogenic B cells, in a 1/2 ratio, in the presence of 10 μM of peptide, for 16 hours.
The IFNγ-producing CD8+ cells are purified using a commercial kit (IFNγ secretion assay-cell enrichment and detection kit, Miltenyi Biotech). The cells thus purified are cultured for one week in complete medium supplemented with 20 IU/ml of IL-2 and 10 ng/ml of IL-7.
The response of these CD8+ cells to T2 cells loaded with one of the peptides p248V9, p248G9 or p248D9, or with a irrelevant peptide (HIVgag76), or to HLA-A*0201+MAGE-A+ tumor cells (M44 and M113) or HLA-A*0201+MAGE-A^− tumor cells (Caco-2), is evaluated by assaying the intracellular IFNγ production.
The CD8+ cells are incubated with the cells of the tumor line tested, in the presence of 20 μg/ml of Brefeldine-A (Sigma). […]
The cells are then analyzed by flow cytometry (FACSCalibur™ (Becton Dickinson) and CellQuest™ software).

The next assay concerns HHD transgenic mice. Briefly: Induction of specific CTLs in HHD transgenic mice by immunization with variant MAGE-A peptides; 51Cr cytotoxicity on peptide-loaded RMAS-HHD targets. Format: in vivo. Particulars: HHD mice, 100 μg s.c. in Freund's incomplete adjuvant; RMAS-HHD targets, effector/target 40/1. As to the method: The immunogenicity of the variant peptides p174Y1V10, p262L2 and p248V9 was evaluated by generation of CTLs on HHD transgenic mice (PASCOLO et al., J. Exp. Med., 185, 2043, 1997). These mice are β2m−/−, D^b−/− and express an HLA-A*0201 single chain made up of the α1 and α2 domains of HLA-A*0201 and the α3 and intracellular domains of D^b, linked via its N-terminal to the C-terminal of human β2-microglobulin, via a peptide of 15 amino acids.
The HHD mice are given a subcutaneous injection at the base of the tail with 100 μg of each variant peptide to be tested, emulsified in Freund's incomplete adjuvant, in the presence of 140 μg of a T-helper epitope derived from the HBV “core” antigen (128-140, sequence […]).
After 11 days, spleen cells taken from the mice (5×10^7 cells in 10 ml) are stimulated in vitro with the test peptide (10 μM). On the 6th day of culture, the populations which respond are tested in order to determine a specific cytotoxicity. The cells which respond are restimulated in vitro at one-week intervals with 2×10^7 irradiated (3000 rads) HHD spleen cells and 1 to 0.1 μM of peptide in the presence of 50 IU/ml of recombinant IL2 (Proleukin, Chiron Corp).
Cytotoxicity assays are carried out 6 days after the final stimulation.
RMAS-HHD cells are used as targets to study the cytotoxicity. The cells are obtained by transfection of murine RMAS cells with the HHD construct as described by PASCOLO et al. (J. Exp. Med., 185, 2043, 1997).
These target cells are labeled with 100 μCi of ^51Cr for 90 minutes, and then washed three times and plated out in round-bottomed 96-well plates (3×10^3 cells/well in 100 μl of RPMI 1640+3% of fetal calf serum). They are loaded with various concentrations of test peptide (variant, native peptide, or irrelevant control peptide), at 37° C. for 90 minutes.
Next, 100 μl of the effector cells (effector cell/target cell ratio=40/1) are added to the wells and the plates are incubated at 37° C. for 4 hours. After incubation, 100 μl of supernatant are collected and the radioactivity is measured in a γ-counter.
The percentage of specific lysis is calculated by means of the formula: [(experimental ^51Cr release−spontaneous ^51Cr release)/(maximum ^51Cr release−spontaneous ^51Cr release)]×100. In all the experiments, the spontaneous release is less than 20% of the maximum release induced with 3N HCl.

The subject of assay [3] is HLA-A*0201 human tumor cells expressing MAGE-A antigens (M44, M113, OBR). Put plainly: Stimulation of CTL248 line with HLA-A*0201 human tumor cells expressing MAGE-A antigens, TNF-α secretion. The assay is classed as cell-based. The protocol:
The following HLA-A*0201 tumor lines were used: • lines expressing at least one MAGE-A antigen: M44 and M113 (melanoma); OBR (bladder cancer); • lines not expressing MAGE-A antigens: MCF-7 (breast cancer) and Caco-2 (colon cancer).
The CTL248 line was stimulated with each of the tumor lines mentioned above.
The stimulation is evaluated by detecting the secretion of TNF-α as described above.
In order to confirm that the tumor cell recognition is indeed HLA-A*0201-restricted, the CTL248 cells were stimulated with M44 cells preincubated for one hour with an anti-HLA-A*0201 monoclonal antibody (BB7.2) or with an irrelevant antibody (anti-CD19), and the production of TNFα was measured as described above.

In assay [4] the test system is COS-7 cells cotransfected with HHD construct and MAGE-A cDNA. Briefly: Stimulation of CTL248 line (induced with p248V9) with transfected COS-7 cells expressing MAGE-A antigens, TNF-α secretion. Format: cell-based, monkey. The protocol: A CTL line called CTL248 was established from the spleen cells of an HDD mouse immunized with the peptide p248V9, by repeated stimulation in vitro with decreasing concentrations of p248G9 (10 μM-1 μM). This line is maintained in culture in the presence of 1 μM of the peptide p248G9.
The cells of the CTL248 line are stimulated, for each of the MAGE-A1, -A2, -A3, -A4, -A6, -A10 and -A12 antigens, with monkey cos-7 cells cotransfected with the HAD construct (PASCOLO et al., mentioned above) and a plasmid containing the cDNA for said antigen. By way of negative controls, COS-7 cells transfected either with the HHD construct alone or with the cDNA for the MAGE-A antigen concerned are used. The stimulation of the CTLs is evaluated by measuring their secretion of TNF-α. […]
After incubation for 6 hours, the supernatant is removed and brought into contact with WEHI164 clone 13 mouse fibrosarcoma cells (3×10^4 per well), which are characterized by a high sensitivity to TNF-α-induced apoptosis. In order to quantify the amount of TNF in the culture supernatants, a standard range of TNF-α (concentrations of 0 to 10^4 pg/ml) is used in parallel. After incubation for 16 hours at 37° C., the viability of the WEHI-164 clone 13 cells is determined by means of an MTT colorimetric assay (SIGMA) (ESPEVIK and NISSEN MEYER, J. Immunol. Methods, 95, 99, 1986).

“Also recorded” adds a separate entry of the source. Where no end group is shown, it is not given here.

For FLWGPRALV, the “processing of the epitope by tumor cells” value with tumor cells is given as “not efficiently processed by tumor cells”.
On to REPVTKAEML (listed as Homo sapiens), for which, in assay [1], the “binding to HLA-B*3701” value is on record as “binds to the HLA-B*3701 allele of MHC-I”.
For the sequence “YLEYRQVPV (not fully specified) [p248V9]”, in assay [2] (PBMCs from normal donors, peptide-loaded dendritic cells, intracellular IFNγ), the “induction of human CTLs by the peptide” value is “induces human CTLs capable of also recognizing the corresponding native peptides, and capable of recognizing tumor cells expressing varied MAGE-A antigens”. Besides, the “response of p248V9-induced human CD8+ cells to T2 cells loaded with the peptide” value in assay [2] (intracellular IFNγ production) is reported as “a response of the CD8+ cells”. Moreover, in the assay on HHD transgenic mice, the “CTL response generated by immunization with the variant peptide” value was “induces a CTL response directed not only against this variant but also against the two native peptides p248G9 and p248D9; also recorded: generates CTLs which kill the RMAS-HHD targets loaded with the variant peptide, or with the corresponding native peptide”. Besides, the “recognition of naturally processed MAGE-A epitope by CTLs induced with the peptide (HLA-A*0201 human tumor lines)” value in assay [3] was “recognize a naturally processed epitope common to the MAGE-A1, -A2, -A3, -A4, -A6, -A10 and -A12 antigens”. The “recognition of naturally processed MAGE-A epitope by CTLs induced with the peptide (COS-7 transfectants)” value in assay [4] is “recognize a naturally processed epitope common to the MAGE-A1, -A2, -A3, -A4, -A6, -A10 and -A12 antigens”.
